Test results from patent US20030203963A1, “Antimicrobial agent” (priority 2001, published 2003).

Assays:
[1] = tested on: Cl. sporogenes (strains 1.221; Campden; ABC20; 4.440); test: Sensitivity testing for Clostridium species in cooked meat medium; type: cell-based, Clostridium sporogenes; conditions: highest level tested 2000 ppm APP20010215, anaerobically at 37° C.
Protocol: Stock solutions of APP215 (0.5, 1 and 2%) were prepared and filter-sterilised. Cooked meat medium (CMM, Oxoid) was prepared by distributing 1 g of the medium to individual test tubes, which were then filled with 8.9 ml water. After autoclaving 100 μl of the APP stock solutions were added, to give final concentrations of 0, 500, […] and 2000 ppm APP. The tests were inoculated with […] of Clostridium spores, to give an inoculum level of ca. 10 cfu/ml. The tubes were overlaid with 3 ml of 2% agar to maintain anaerobicity. The tests were incubated at 37° C., and examined daily for signs of growth (turbidity, gas production).

Ps. fluorescens 3756 [2] = test: Chicken soup trial at 20° C.; type: cell-based, Pseudomonas fluorescens
Excerpt: A local supermarket brand of cream of chicken soup was used as a model food system. 600 g packs were purchased from the local supermarket. This was a ‘fresh home-made type’ of soup that was stored in the chill cabinet, with a short shelf life. It was chosen because it is a rich, nutritious food system containing a range of food components including meat, dairy and vegetable.
Ingredients were labelled as: chicken stock (water, duck fat, chicken, salt, flavourings, yeast extracts, pork gelatine, glucose syrup, vegetable concentrate, milk protein, sugar, malto-dextrin, vegetable oil, citric acid, lactose, chicken fat), ilk, chicken (9%), cream (8%), onion, potato, vegetable oil, modified maize starch, wheat flour, lemon juice, salt, white pepper. pH 5.912. Protein: 3.3%; carbohydrate: 4.7%; fat: 7.2%; fibre: 0.2%; sodium: 0.1%
For the test the soup was mixed 2:1 in water (to facilitate sampling and mixing) and sterilised by autoclaving at 121° C. for 15 minutes. For each experiment the pH of the soup was recorded; this was between pH 5.79-5.88.
For TCS010430/20 (incubated at 20° C.) samples were prepared in 18.8 g quantities, to which 1 g of a suitable filter-sterilised APP stock solution was added and an appropriately diluted 0.2 ml inoculum. Great care was again taken to ensure homogeneous distribution of the APP and micro-organisms. This test was sampled by viable count test on a daily basis.

L. monocytogenes 272 = test: Test in cooked sausage meat slurry; type: cell-based, Listeria monocytogenes
Excerpt: 500 g of bologna sausage meat mixture was mixed with 500 g Brain Heart Infusion broth (BHIB) to make a homogeneous slurry. The bologna sausage meat mix comprised (g per kg): lean beef 320; lean pork 202; lard 250; water 40; glucose 5; starch 155; spice mix 3.75; sodium glutamate 0.5; sodium erythorbate 0.545; sodium di-phosphate 3; NaCl 20; sodium nitrite 0.15. 200 g samples of the meat slurry were autoclaved. While the meat was still warm it was re-mixed thoroughly. When the meat had cooled it was inoculated with 2 ml of 10^5 cfu/ml spore or cell suspension, and re-mixed again. Each inoculated meat sample was divided into 3×50 g samples, and 1 ml of either SDW, 2.5% or 5% APP solution (batch number APP 20010215) was added to prepare meat samples containing 0, 500 and 1000 ppm APP. The meat slurry was again shaken thoroughly to ensure even mixing, an initial viable count was taken and the samples incubated at 8° C. Samples were taken at twice-weekly intervals. The pH of the sausage meat slurry was 6.2.

Br. thermosphacta = test: Inoculated test in raw meat; type: cell-based, Brochothrix thermosphacta; conditions: Raw inoculated meat at 8° C. pH 5.3
Protocol: Fresh beef steak was purchased from the local butcher, and minced on clean machinery. The raw meat (ca. pH 6.2) was divided into 8×90 samples and inoculated-with 10^3 cfu/ml of test organisms. The meat was mixed thoroughly using a stomacher. 10 g of SDW or 2% APP (Batch number APP20010215) was added, and the meat was again thoroughly mixed. An initial viable count was taken, the meat was incubated at 8° C., and sampled on the following days using non-selective agar (MPCA) and selective agar: XLD for Salmonella; Oxford selective agar (Listeria monocytogenes); and STAA agar (Brochothrix thermosphacta). The pH of the raw meat was pH 5.3.

Ps. fluorescens 327 = test: Bioscreen growth inhibition test; type: cell-based, Pseudomonas fluorescens; conditions: BS010510, 24 h/30, APP20010213
Protocol: (§1) For broth cultures and Bioscreen testing most bacteria were grown in Brain Heart Infusion (BHI, Oxoid, pH 7.4). Lactobacillus sake A10 was grown in de Man, Rogosa, Sharpe medium ([…], Oxoid). Yeasts were grown in Sabouraud Liquid medium (SLM, Oxoid). Most bacteria were cultured at 30° C. Lactic acid bacteria were grown on solid medium in enriched CO2 atmosphere. Clostridium species were grown in Reinforced Clostridial Medium (RCM) at 37° C. anaerobically. Brochothrix thermosphacta fungi and yeasts were grown at 25° C. Fungi were cultured on Malt Extract Agar (MEA, Oxoid).
(§2) An automated Microbiology Reader Bioscreen C was used to measure growth curves of the strains in the presence and absence of APP. The Bioscreen C measures the development of turbidity (i.e. growth) kinetically by vertical photometry in 200 wells of a honeycomb microtitre plate, simultaneously. The system consists of a Bioscreen C analyser, which is an incubator and measurement unit, integrated with a PC, software (BioLink v 5.30), printer and a ‘Honeycomb 2’ cuvette multiwell plate. Growth curve data can be analysed within the BioLink software or exported to programs such as Excel.
(§3) Broth culture media were dispensed in 270 μl volumes into the wells as directed. Serial dilutions of a filter-sterilised APP stock solution were then dispensed into the same wells, as appropriate. The wells were inoculated with 30 μl of an appropriately diluted overnight broth culture or spore suspension, to give a final inoculum level of […]. The tests were incubated in the Bioscreen C for either 24 h at 30° C., or 72 h at 25° C. (depending on the micro-organism under investigation) with readings taken every 20 minutes after the trays were shaken. After the incubation period was complete the data were exported to Excel for analysis.

Ps. fluorescens 3756 [3] = test: Bioscreen growth inhibition test; type: cell-based, Pseudomonas fluorescens; conditions: BS010411, 24 h/30° C.
Protocol: as §1, §2, §3

Ps. fluorescens 1331 = test: Bioscreen growth inhibition test; type: cell-based, Pseudomonas fluorescens; conditions: BS010510, 24 h/30, APP20010213
Protocol: as §1, §2, §3

Ps. fluorescens 10460 = test: Bioscreen growth inhibition test; type: cell-based, Pseudomonas fluorescens; conditions: BS010510, 24 h/30, APP20010213
Protocol: as §1, §2, §3

[4] = 2000 ppm, chicken soup at 20° C., TCSM010430, APP20010213

SMILES: O=C1CC(CO)OC=C1O (centres unmarked) [APP, Ascopyrone P]
- Growth inhibition [1]: No growth inhibition
- Effect on growth (Ps. fluorescens 3756 [2]; 1000 ppm, chicken soup at 20° C., TCSM010430, APP20010213): No significant effect with 1000 ppm
- Counts (Ps. fluorescens 3756 [2]; [4]): undetectable).
- Total inhibition for (Ps. fluorescens 3756 [2]; [4]): Total inhibition by 2000 ppm for >42 days (counts
- Total inhibition (effect on growth of target organism by 2000 ppm APP) (Ps. fluorescens 3756 [2]; Chicken soup at 20° C. pH 5.8): Ps. fluorescens
- 10^6 reached at (L. monocytogenes 272; 1000 ppm, cooked sausage meat slurry at 8° C., TSM010605, controls 7 d): 7 d
- Effect on growth (L. monocytogenes 272; 1000 ppm, cooked sausage meat slurry at 8° C., pH 6.2, TSM010605): No total inhibition
- Partial inhibition (effect on growth of target organism by APP) (L. monocytogenes 272; Cooked sausage meat slurry at 8° C. pH 6.2, (1000)): L. monocytog.
- No inhibition (effect on growth of target organism by 2000 ppm APP) (Br. thermosphacta): Br. thermosphacta
- APP level causing total inhibition (Ps. fluorescens 327): 1000 ppm
- APP level causing significant inhibition (Ps. fluorescens 3756 [3]; APP 20010213): 1000 ppm
- APP level causing total inhibition (Ps. fluorescens 3756 [3]; APP 20010213): 2000 ppm
- APP level causing significant inhibition (Ps. fluorescens 3756 [3]; APP 20010215): 1000 ppm
- APP level causing total inhibition (Ps. fluorescens 3756 [3]; APP 20010215): 2000 ppm
- APP level causing total inhibition (Ps. fluorescens 1331): 1000 ppm
- APP level causing significant inhibition (Ps. fluorescens 10460): 1000 ppm
- APP level causing total inhibition (Ps. fluorescens 10460): 2000 ppm
